Structures can show the parent of a compound that is named as a salt.
Assays:
Leuprolide (1.2 kDa) = assay: Photochemical labeling of leuprolide (LC/MS); type: biochemical; conditions: 10 μM leuprolide, 100 μM pyridinium salt, 300 μM glutathione, 20 mM NH4OAc pH 6.9, 427 nm, 30 minutes
Method: (§1) General Procedure B: Photochemical Irradiation of Peptides and Proteins: To a 2 mL Pyrex LC/MS vial (Thermo model #03-391-39) were sequentially added solutions containing the desired biomolecule, glutathione (GSH), pyridinium salt, and ammonium acetate (NH4OAc). The resulting solution was diluted to a final volume of 500 μL and then sparged using nitrogen for a minimum of 30 minutes prior to irradiation. The actively sparging solution was then placed in an EvoluChem™ PhotoRedOx Box photoreactor that was equipped with a Kessil, PR160 427 nm LED Lamp and was then irradiated (100% lamp intensity) for the designated time at room temperature while maintaining active sparging. The resultant reaction mixture was then analyzed directly by LC/MS. Analysis of labeling outcomes using LC/MS was performed either by extracted ion chromatogram intensities (method A) or by integrating the area under the peaks associated with peptide content (method B). These values were totaled, and estimated percentages were assigned according to relative intensities of peaks or ion counts.
Labeling of Leuprolide with Pyridinium Salt 2a (Leuprolide-2a Conjugate). […] The reaction mixture was analyzed directly by LC/MS using method B and was estimated to have proceeded with 91% conversion, a >20:1 mono:di labeled ratio, and 4% of +1 label+glutathionylation. […]

[1] = molecular target: T1, chymotrypsinogen (25 kDa) (Bos taurus, UniProt P00766); assay: Photochemical labeling of chymotrypsinogen (LC/MS, MS-MS); type: biochemical, bovine; conditions: digestion/MS-MS
T1 construct: α-Chymotrypsinogen A from bovine pancreas; purchased Sigma Aldrich; host or cells: bovine pancreas
Method: as §1
Labeling of Chymotrypsinogen with pyridinium salt 2a (Chymotrypsinogen-2a Conjugate). […] The reaction mixture was directly analyzed by LC/MS using method A and was estimated to have proceeded with 90% conversion with a 20.7:8.3:1 mono:di:tri labeled ratio and 4% glutathionylation of all unlabeled and labeled protein content. […]

## COC(=O)N(C)[n+]1c(C)cc(-c2ccc3cc(OC)ccc3c2)cc1C [Pyridinium salt 2a, 1-((methoxycarbonyl)(methyl)amino)-4-(6-methoxynapthalen-2-yl)-2,6-dimethylpyridin-1-ium tetrafluoroborate]
Leuprolide (1.2 kDa)
  conversion: 91%
[1]
  detectable locations of labeling: Trp-215 and Trp-237
